In patent US5935973A, “Heterocyclcarboxamide derivatives and their use as therapeutic agents” (Knoll Aktiengesellschaft, priority 1995, dated 1999):

Key:
5-HT1A receptors = target: T1, 5-HT1A receptors (Rattus norvegicus, UniProt P19327); test: inhibition of [3H]8-OH-DPAT binding to 5-HT1A receptors in rat hippocampal tissue; settings: rat hippocampus; for Ki: [3H]8-OH-DPAT 2 nM, 25° C., 30 min; for inhibition at 1 µM: at 10^-6 M, [3H]8-OH-DPAT, read-out: % displacement of radio ligand, 5-HT1A
T1 construct: Hippocampal tissue from the brains of male Sprague-Dawley rats; from tissue; host or cells: rat hippocampus membranes
T1 sequence (P19327 1-422): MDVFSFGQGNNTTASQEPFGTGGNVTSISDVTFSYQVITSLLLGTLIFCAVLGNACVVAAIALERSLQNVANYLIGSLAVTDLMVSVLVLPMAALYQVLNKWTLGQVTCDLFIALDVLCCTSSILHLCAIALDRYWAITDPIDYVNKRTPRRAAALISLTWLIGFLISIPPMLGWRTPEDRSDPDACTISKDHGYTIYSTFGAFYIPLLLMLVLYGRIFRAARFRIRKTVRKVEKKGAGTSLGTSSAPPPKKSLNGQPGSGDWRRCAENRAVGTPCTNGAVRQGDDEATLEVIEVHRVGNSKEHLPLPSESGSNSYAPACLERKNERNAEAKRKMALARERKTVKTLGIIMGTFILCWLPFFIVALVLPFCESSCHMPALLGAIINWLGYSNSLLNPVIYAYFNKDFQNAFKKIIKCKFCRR
Protocol: Hippocampal tissue from the brains of male Sprague-Dawley rats (Charles River; weight range 150-250 g) was homogenised in ice-cold 50 mM Tris-HCl buffer (pH 7.7 when measured at 25° C., 1:40 w/v) and centrifuged at 30,000 g at 4° C. for 10 minutes. The pellet was rehomogenised in the same buffer, incubated at 37° C. for 10 minutes and centrifuged at 30,000 g at 4° C. for 10 minutes. The final pellet was resuspended in 50 mM Tris-HCl buffer (pH 7.7) containing 4 mM CaCl2, 0.1% L-ascorbic acid and 10 μM pargyline hydrochloride (equivalent to 6.25 mg wet weight of tissue/ml) and used immediately in the binding assay. Aliquots (400 μl; equivalent to 2.5 mg wet weight of tissue/tube) of this suspension were added to tubes containing the ligand (50 μl; 2 nM) and distilled water (50 μl total binding) or 5-HT (50 μl; 10 μM; non-specific binding) or test compound (50 μl; at a single concentration of 10^-6 M or at 10 concentrations ranging from 10^-11 -10^-3 M). The ligand was [^3 H]8-hydroxy-2-(dipropylamino)tetralin ([^3 H]8-OH-DPAT) and the mixture was incubated at 25° C. for 30 minutes before the incubation was terminated by rapid filtration.
(§1) The filters were washed with ice-cold Tris-HCl buffer and dried. The filters were punched out into vials, scintillation fluid added and radioactivity determined by liquid scintillation counting. The percentage displacement of specific binding of the tritiated ligand was calculated for the single concentration (10^-6 M) of test compound. Displacement curves were then produced for those compounds which displaced ≥50% of specific binding of the tritiated ligand at 10^-6 M using a range of concentrations of the compound. The concentration which gave 50% inhibition of specific binding (IC50) was obtained from the curve. The inhibition coefficient Ki was then calculated using the formula [formula] in which [ligand] is the concentration of the tritiated ligand used and KD is the equilibrium dissociation constant for the ligand.

α1-adrenoceptors = test: inhibition of [7-methoxy-3H]prazosin binding to α1-adrenoceptors in rat whole cortical tissue; settings: rat whole cortex, 30 min; for Ki: [7-methoxy-3H]prazosin 0.1 nM, 30° C.; for % displacement of radio ligand, α1: at 10^-6 M, [7-methoxy-3H]prazosin, 1 µM
Protocol: Whole cortical tissue from the brains of male Charles River CD rats weighing between 150-250 g were homogenised in ice-cold 50 mM Tris-HCl, pH 7.6 (at 25° C.; 1:40 w/v) and centrifuged at 1000 g at 4° C. for 10 minutes. The supernatant was centrifuged at 30,000 g at 4° C. for 10 minutes. The pellet was rehomogenised in 50 mM Tris-HCl, pH 7.6 (1:40 w/v) and centrifuged at 30,000 g at 4° C. for 10 minutes. The final pellet was resuspended in 50 mM Tris-HCl, pH 7.6 (equivalent to 12.5 mg wet weight of tissue/ml) and used immediately in the binding assay. Aliquots (400 μl; equivalent to 5 mg wet weight of tissue/tube) of this suspension were added to tubes containing the ligand (50 μl; 0.1 nM) and distilled water (50 μl; total binding) or phentolamine (50 μl; 5 μM; non-specific binding) or test compound (50 μl; at a single concentration of 10^-6 M or at 10 concentrations ranging from 10^-11 -10^-3 M). The ligand was [7-methoxy-^3 H]prazosin and the mixture was incubated at 30° C. for 30 minutes before the incubation was terminated by rapid filtration.
as §1

D2 dopamine receptors = target: T2, D2 dopamine receptors (Rattus norvegicus, UniProt P61169); test: inhibition of tritiated (S)-sulpiride binding to D2 dopamine receptors in rat striatal tissue; settings: rat striatum; for Ki: tritiated (S)-sulpiride 1 nM, 4° C., 40 min; for inhibition at 1 µM: at 10^-6 M, tritiated (S)-sulpiride, read-out: % displacement of radio ligand, D2
T2 construct: Striatal tissue from the brains of male Charles River CD rats; from tissue; host or cells: rat striatum membranes
T2 sequence (P61169 whole entry): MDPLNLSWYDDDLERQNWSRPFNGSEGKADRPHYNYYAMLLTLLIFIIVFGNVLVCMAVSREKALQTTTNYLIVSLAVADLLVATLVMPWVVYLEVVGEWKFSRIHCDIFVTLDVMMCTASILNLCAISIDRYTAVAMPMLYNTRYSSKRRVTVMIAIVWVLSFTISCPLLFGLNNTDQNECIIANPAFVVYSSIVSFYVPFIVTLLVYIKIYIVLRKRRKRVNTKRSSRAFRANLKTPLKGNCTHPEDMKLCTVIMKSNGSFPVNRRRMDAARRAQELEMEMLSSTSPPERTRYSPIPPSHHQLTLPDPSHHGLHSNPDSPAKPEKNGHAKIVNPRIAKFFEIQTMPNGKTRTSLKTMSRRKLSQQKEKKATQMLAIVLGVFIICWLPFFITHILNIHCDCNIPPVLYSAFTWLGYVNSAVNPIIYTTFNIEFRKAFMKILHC
Protocol: Striatal tissue from the brains of male Charles River CD rats weighing between 140-250 g were homogenised in ice-cold 50 mM Tris-HCl buffer (pH 7.7 when measured at 25° C.) and centrifuged at 40,000 g for 10 minutes. The pellet was resuspended in Tris salts buffer (50 mM Tris-HCl buffer containing 120 mM NaCl, 5 mM KCl, 2 mM CaCl2 and 1 mM MgCl2 with the addition of 6 mM ascorbic acid; pH 7.7 when measured at 25° C.), and again centrifuged at 40,000 g for 10 minutes. The final pellet was stored at -80° C. Before each test the pellet was resuspended in Tris salts buffer (equivalent to 2 mg wet weight of tissue/ml). Aliquots (720 μl; equivalent to 1.44 mg wet weight of tissue/tube) of this suspension were then added to tubes containing the ligand (40 μl; 1 nM) and Tris salts buffer (40 μl; total binding) or spiroperidol (40 μl; 10 nM; non-specific binding) or test compound (40 μl; at a single concentration of 10^-6 M or at 6 concentrations ranging from 10^-11 -10^-4 M). The ligand was tritiated (S)-sulpiride and the mixture was incubated at 4° C. for 40 minutes before the incubation was terminated by rapid filtration.
The filters were washed with ice-cold Tris-HCl buffer and dried. The filters were punched out in to vials, scintillation fluid added and were left for about 20 hours before being counted by scintillation spectrophotometry. The percentage displacement of specific binding of the tritiated ligand was calculated for the single concentration (10^-6 M) of test compound. Displacement curves were then produced over a range of concentrations for those compounds which displaced ≥50% of specific binding of the tritiated ligand at 10^-6 M. The concentration which gave a 50% inhibition of specific binding (IC50) was obtained from the curve. The inhibition coefficient Ki was then calculated using the formula [formula] in [ligand] is the concentration of the tritiated ligand used and KD is the 2 equilibrium dissociation constant for the ligand.

SMILES	Ki (5-HT1A receptors) [nM]	Ki (α1-adrenoceptors) [nM]	Ki (D2 dopamine receptors) [nM]	inhibition at 1 µM (5-HT1A receptors) [%]	% displacement of radio ligand, α1 (α1-adrenoceptors) [%]	inhibition at 1 µM (D2 dopamine receptors) [%]
COc1ncccc1C(=O)NCC1CCN(C[C@H]2COc3ccc(Cl)cc3O2)CC1 [Example 26, (S)-N-{[1-(7-chloro-1,4-benzodioxan-2-ylmethyl)-4-piperidyl]methyl}-2-methoxypyridine-3-carboxamide]	7	130	43			
Nc1ncccc1C(=O)NCC1CCN(C[C@H]2COc3ccc(F)c(F)c3O2)CC1 [Example 27, (S)-2-amino-N-{[1-(7,8-difluoro-1,4-benzodioxan-2-ylmethyl)4-piperidyl]methyl}pyridine-3-carboxamide]				90	68	99.9
O=C(c1ccccn1)N1CCC(CNC[C@H]2COc3ccc(Cl)cc3O2)CC1 [Example 29, 4-[N-(7-chloro-1,4-benzodioxan-2-ylmethyl)aminomethyl]-1-(2-pyridylcarbonyl)piperidine]				95	85	
O=C(NCC1CCN(C[C@H]2COc3cccc(C(F)(F)F)c3O2)CC1)c1cccnc1 [Example 45, (S)-N-{[1-(8-trifluoromethyl-1,4-benzodioxan-2-ylmethyl)-4-piperidyl]methyl}pyridine-3-carboxamide]				80	94	97
Nc1ncccc1C(=O)N1CCC(CNCC2COc3ccc(Cl)cc3O2)CC1 (racemic) [Example 19, 1-(2-aminonicotinoyl)-4-[N-(7-chloro-1,4-benzodioxan-2-ylmethyl)aminomethyl]piperidine]	30	49	11.4			
O=C(NCC1CCN(C[C@H]2COc3ccc(Cl)cc3O2)CC1)c1ccc(-n2cccc2)nc1 [Example 40, (S)-N-{[1-(7-chloro-1,4-benzodioxan-2-ylmethyl)-4-piperidyl]methyl}-6-(1-pyrrolyl)pyridine-3-carboxamide]				87	60	91
CSc1ncccc1C(=O)NCC1CCN(C[C@H]2COc3cccc(Cl)c3O2)CC1 [Example 51]				95	98	101
O=C(NCC1CCN(C[C@H]2COc3ccc(Br)cc3O2)CC1)c1ccc(-n2cccc2)nc1 [Example 37, (S)-N-{[1-(7-bromo-1,4-benzodioxan-2-ylmethyl)-4-piperidyl]methyl}-6-(1-pyrrolyl)pyridine-3-carboxamide]				85	66	97

Second part, the compound after the results:

Ki (5-HT1A receptors) [nM]	Ki (α1-adrenoceptors) [nM]	Ki (D2 dopamine receptors) [nM]	inhibition at 1 µM (5-HT1A receptors) [%]	% displacement of radio ligand, α1 (α1-adrenoceptors) [%]	inhibition at 1 µM (D2 dopamine receptors) [%]	SMILES
			88	93	99	O=C(NCC1CCN(C[C@H]2COc3cccc(C(F)(F)F)c3O2)CC1)c1cncc(Br)c1 [Example 49, (S)-5-bromo-N-{[1-(8-trifluoromethyl-1,4-benzodioxan-2-ylmethyl)-4-piperidyl]methyl}pyridine-3-carboxamide]
			88	51	99	CSc1ncccc1C(=O)NCC1CCN(C[C@H]2COc3ccc(Br)cc3O2)CC1 [Example 38, (S)-N-{[1-(7-bromo-1,4-benzodioxan-2-ylmethyl)-4-piperidyl]methyl}-2-(methylthio)pyridine-3-carboxamide]
			87	68	86	Cc1ccc2c(c1)O[C@@H](CN1CCC(CNC(=O)c3cncc(Br)c3)CC1)CO2 [Example 34, (S)-5-bromo-N-{[1-(7-methyl-1,4-benzodioxan-2-ylmethyl)-4-piperidyl]-methyl}pyridine-3-carboxamide]
			95	97	101	O=C(NCC1CCN(C[C@H]2COc3cccc(Cl)c3O2)CC1)c1cncc(Br)c1 [Example 52, (S)-5-bromo-N-{[1-(8-chloro-1,4-benzodioxan-2-ylmethyl)-4-piperidyl]methyl}pyridine-3-carboxamide]
			92	71	80	Cc1ccc2c(c1)O[C@@H](CN1CCC(CNC(=O)c3ccc(-n4cccc4)nc3)CC1)CO2 [Example 32, (S)-N-{[1-(7-methyl-1,4-benzodioxan-2-ylmethyl)-4-piperidyl]methyl}-6-(1-pyrrolyl)pyridine-3-carboxamide]
			81	41	81	CSc1ncccc1C(=O)NCC1CCN(C[C@H]2COc3ccc(C)cc3O2)CC1 [Example 33, (S)-N-{[1-(7-methyl-1,4-benzodioxan-2-ylmethyl)-4-piperidyl]methyl}-2-(methylthio)pyridine-3-carboxamide]
47	233	33				Cc1cccc(C(=O)NCC2CCN(C[C@H]3COc4ccc(Cl)cc4O3)CC2)n1 [Example 25, (S)-N-{[1-(7-chloro-1,4-benzodioxan-2-ylmethyl)-4-piperidyl]methyl}-6-methylpyridine-2-carboxamide]
			76	59	68	O=C(NCC1CCN(C[C@H]2COc3ccc(F)cc3O2)CC1)c1cccnc1 [Example 43, (S)-N-{[1-(7-fluoro-1,4-benzodioxan-2-ylmethyl)-4-piperidyl]methyl}pyridine-3-carboxamide]
